# Laboratory results taken from patent publication US6743598B2, “Methods for the identification of fungal glucose utilization inhibitors and antifungal agents” (priority 2001, dated 2004).
# “Also recorded” adds a separate entry of the source.
# Legend:
# Yeast PGI = Yeast PGI (Saccharomyces cerevisiae, UniProt P12709); details: cited from earlier work
# T. brucei PGI = T. brucei PGI (Trypanosoma brucei brucei, UniProt P13377); details: cited from earlier work
# [1] = target: T. brucei phosphoglucose isomerase (Trypanosoma brucei brucei, UniProt P13377); details: cited from earlier work
# Sequence of T. brucei phosphoglucose isomerase (P13377 whole entry): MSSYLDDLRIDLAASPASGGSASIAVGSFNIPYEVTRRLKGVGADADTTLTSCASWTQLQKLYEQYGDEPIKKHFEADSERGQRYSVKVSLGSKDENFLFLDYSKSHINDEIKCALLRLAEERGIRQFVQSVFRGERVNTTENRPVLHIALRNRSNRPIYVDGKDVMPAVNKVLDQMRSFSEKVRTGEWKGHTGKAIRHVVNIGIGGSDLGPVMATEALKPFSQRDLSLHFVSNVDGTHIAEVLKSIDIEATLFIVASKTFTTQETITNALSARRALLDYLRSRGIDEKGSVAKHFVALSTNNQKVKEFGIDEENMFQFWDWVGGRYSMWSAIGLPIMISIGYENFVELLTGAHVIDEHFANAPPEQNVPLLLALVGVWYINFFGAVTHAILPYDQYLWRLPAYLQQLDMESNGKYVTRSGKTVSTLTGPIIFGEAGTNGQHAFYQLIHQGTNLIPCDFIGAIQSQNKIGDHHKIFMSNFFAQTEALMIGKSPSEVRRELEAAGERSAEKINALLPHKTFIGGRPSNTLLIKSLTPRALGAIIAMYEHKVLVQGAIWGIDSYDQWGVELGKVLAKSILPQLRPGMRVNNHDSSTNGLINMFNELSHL
# [2] = target: Rabbit phosphoglucose isomerase (Oryctolagus cuniculus, UniProt Q9N1E2); details: low ionic strength, cited from earlier work
# [3] = target: yeast phosphoglucose isomerase (Saccharomyces cerevisiae, UniProt P12709); details: cited from earlier work
# Sequence of yeast phosphoglucose isomerase (P12709 2-554): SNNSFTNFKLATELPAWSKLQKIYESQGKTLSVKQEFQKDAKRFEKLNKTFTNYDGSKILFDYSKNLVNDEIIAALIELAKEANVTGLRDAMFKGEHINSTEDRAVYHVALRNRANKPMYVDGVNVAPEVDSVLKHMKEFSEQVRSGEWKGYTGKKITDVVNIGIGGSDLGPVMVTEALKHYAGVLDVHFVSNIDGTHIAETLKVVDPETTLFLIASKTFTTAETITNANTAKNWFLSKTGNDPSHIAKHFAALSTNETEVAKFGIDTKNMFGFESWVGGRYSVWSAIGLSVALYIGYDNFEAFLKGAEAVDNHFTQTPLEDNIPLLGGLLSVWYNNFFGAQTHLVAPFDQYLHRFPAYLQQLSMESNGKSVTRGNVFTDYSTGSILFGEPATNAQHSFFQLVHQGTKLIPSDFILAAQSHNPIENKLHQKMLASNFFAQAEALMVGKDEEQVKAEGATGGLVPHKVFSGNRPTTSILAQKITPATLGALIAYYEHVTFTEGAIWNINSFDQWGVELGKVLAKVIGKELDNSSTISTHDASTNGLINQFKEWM
# [4] = system: A. fumigatus phosphoglucose isomerase, ketol-isomerase, and N-acetyltransferase; assay: Colorimetric CoA(GlcNAc-6-P) formation assay in crude A. fumigatus lysates; assay type: biochemical, Aspergillus fumigatus; details: added to crude A. fumigatus lysates, FIG. 5
# Protocol: A. fumigatus ATCC16424 (a human clinical isolate) was inoculated into liquid YG medium [1% (w/v) yeast extract and 1% (w/v) glucose] with 1×10^7 conidia per/mL (final concentration), and incubated for 18 hours at 37° C. with shaking (250 rpm). Hyphae were harvested by vacuum filtration over Whatman No. 2 filter paper, washed twice with ice-cold water, quick-frozen in dry ice, and stored at −80° C.
# Frozen A. fumigatus hyphae were thawed and disrupted by bead-beating (6×30 seconds pulses with 2 minutes cooling between each pulse) using 0.5 mm zirconium beads in KI buffer (600 mM sucrose, 1 mM KCl, 1 mM EDTA, 50 mM PIPES, pH 6.8). The lysates were centrifuged at 1,000×g for 10 minutes at 4° C. The supernatants were stored at −80° C. and used as enzyme sources. The protein concentration of the supernatants was determined using the BioRad protein assay kit.
# Reactions were performed in 96-well flat bottom microtiter plates containing 10 mM Glc-6-P, 10 mM glutamine, 200 μM AcCoA, and 0.25 mg/mL cell lysate of A. fumigatus at pH 6.8 in a final volume of 50 μL. […] After incubation for 10 minutes at room temperature, the OD412 was measured using a microtiter plate reader. […] The amount of CoA formed by reaction mixtures was calculated from the standard curve. […]
# Chitin synthase = details: competitive substrate inhibitors of chitin synthase; cited from earlier work
# [5] = read-out: Fru-6-P Km, low ionic strength
# [6] = competitive inhibitor, low ionic strength, read-out: Gluconate-6-P Ki
# Sequence of T. brucei PGI (P13377 whole entry): as the sequence (P13377 whole entry) above
# Sequence of Yeast PGI (P12709 2-554): as the sequence (P12709 2-554) above
compound,measurement,setting,value
O=C(NO)[C@@H](O)[C@H](O)[C@H](O)COP(=O)(O)O [D-Arabinohydroxamic acid-5-phosphate],Ki,Yeast PGI,0.23 ± 0.02 µM
same,Km/Ki,Yeast PGI,300
same,Ki,T. brucei PGI; T. brucei PGI,0.05 ± 0.009 µM
same,Km/Ki,T. brucei PGI; T. brucei PGI,2060
same,specificity for T. brucei phosphoglucose isomerase versus yeast isomerase,T. brucei PGI; T. brucei versus yeast,4.6 fold
"O=C(CO)[C@@H](O)[C@H](O)[C@H](O)COP(=O)(O)O [Fru-6-P, fructose-6-phosphate]",Km,[1]; [5],122 ± 45 µM
same,Km,[2]; read-out: Fru-6-P Km,119 ± 28 µM
same,Km,[3]; [5],167 ± 48 µM
"O=C(O)[C@H](O)[C@@H](O)[C@H](O)[C@H](O)COP(=O)(O)O [Gluconate-6-P, gluconate-6-phosphate]",inhibition of CoA (GlcNAc-6-P) formation,[4],inhibited the formation of CoA (GlcNAc-6-P) in a dose-dependent manner; also recorded: inhibited the production of CoA in a dose dependent manner
same,Ki,[1]; [6],140 ± 30 µM
same,Ki,"[2]; competitive inhibitor, read-out: Gluconate-6-P Ki",120 ± 30 µM
same,Ki,[3]; [6],480 ± 120 µM
polyoxins,inhibition constants (Ki),Chitin synthase,in the μM range
uridine diphosphate-N-acetyl glucosamine [UDP-GlcNAc],inhibition of CoA (GlcNAc-6-P) formation,[4],inhibited the formation of CoA (GlcNAc-6-P) in a dose-dependent manner; also recorded: inhibited the production of CoA in a dose dependent manner
